Where “and” joins values, the source holds several entries; their conditions need not be identical. Equal entries are not always repeated. Entries after “also recorded” stand apart in the source; their conditions may differ. Marks after values point to notes of the source that are not given here.
Tests used:
[1] = biological target: T1, VIM-2 (Escherichia coli, UniProt Q5U7L7); test: biochemical; conditions: for K, VIM-2 / k –2, VIM-2: from dependence of k inact on inhibitor concentration; for Kd: time-dependent inhibitors, measured at steady state, listed in Table 2 as Ki with footnote 'Measured as K d'
T1 construct: made in house; host or cells: E. coli

[2] = system: S. marcescens SI-1591 (bla VIM‑2 +); test: microbe, parasite or virus in culture; type: cell-based; conditions: compound at 32 μg/mL; median of three experiments
Procedure: (§1) In vitro antimicrobial susceptibility testing was performed according to established standards. […] The strains used in the study were described elsewhere.

[3] = system: NDM-1 expressing K. pneumoniae (T2301); test: Growth inhibition assay (OD600 growth curves); type: cell-based
Procedure: (§2) 4 Growth inhibition assay. […] Purple = growth control; red = 6d; blue = imipenem; green = imipenem plus 6d.
(§3) A computerized incubator (Tecan Infinite M200 pro, Crailsheim, Germany) was used to obtain the growth curves over a time course. Optical density (OD600) was measured for evaluating bacterial (i.e., K. pneumoniae NDM-1, P. aeruginosa IMP-1, K. pneumoniae VIM-1) density in suspension. Prior to each experiment, bacteria were cultured to the exponential phase (OD600 = 0.6–0.8) in cation-adjusted Mueller Hinton broth (Becton Dickinson, Heidelberg, Germany). 5 μL of diluted bacterial suspension and 100 μL of cation-adjusted Mueller Hinton broth either with or without imipenem (Arcos Organics, Schwerte, Germany) and/or the MBL inhibitor 6d were added into wells of a 96-well plate to give a final bacterial inoculum of approximately 5 × 10^5 CFU/mL. The temperature was adjusted to 37 °C. A permanent shaking speed of 450 rpm was used and was only interrupted before OD600 measurement. The optical densities of samples were recorded online every 10 min for 24 h.

[4] = system: IMP-1 expressing P. aeruginosa (T2325); test: Growth inhibition assay (OD600 growth curves); type: cell-based
Procedure: as §2, §3

[5] = system: VIM-1 expressing K. pneumoniae (T2216); test: Growth inhibition assay (OD600 growth curves); type: cell-based
Procedure: as §2, §3

[6] = biological target: T2, human angiotensin-converting enzyme 1 (ACE-1) (Homo sapiens, UniProt P12821); test: ACE Activity Assay Kit, fluorogenic substrate; type: biochemical; conditions: for inhibition at 50 µM: 50 μM inhibitor
T2 construct: purchased Sigma-Aldrich CS0002
Procedure: To assess the selectivity of the compounds, their inhibitory activity on human angiotensin-converting enzyme 1 (ACE-1) was performed using the ACE Activity Assay Kit (Sigma-Aldrich cat. No. CS0002). […] Captopril (racemic mixture, D- and L-stereoisomers) was used as control in these experiments.

[7] = biological target: T3, NDM-1 (Klebsiella pneumoniae, UniProt C7C422); test: Spectrophotometric direct competition assay, imipenem hydrolysis (reporter substrate); type: biochemical; conditions: for Ki: competitive model, imipenem reporter substrate, read-out: K i NDM-1; for inhibition at 50 µM: read-out: percentage of inhibition NDM-1
T3 construct: made in house; host or cells: E. coli
Procedure: (§4) IC50 values were determined in a kinetic fluorescence-based in vitro assay as described previously. All compounds were preincubated with the recombinant protein for 30 min before addition of the fluorogenic substrate fluorocillin. , The inhibitory activity was also determined (expressed as the percentage of inhibition in the presence of 50 μM compound) using a spectrophotometric assay in which the hydrolysis of imipenem (the reporter substrate) was monitored (see Section for details).
(§5) The inhibitory activity of the compounds was determined using enzyme assays with recombinant NDM-1, VIM-1, VIM-2, IMP-1, and IMP-7. These enzymes were produced in E. coli and purified as previously described. , The fluorogenic substrate fluorocillin was synthesized according to the procedure described by Rukavishnikov et al. The assays were performed in 96-well format using black polystyrene plates (Corning, Corning, NY) at room temperature, and the measurements were carried out on the Tecan spectrophotometer Infinite F200 PRO (Tecan, Männedorf, Switzerland). The protein stock solutions were diluted in assay buffer (HEPES 50 mM, pH 7.5 containing 0.01%Triton X-100, buffer HX) to reach final concentrations of VIM-1–4 nM, IMP-7–0.1 nM; NDM-1–3 nM. Subsequently, 89 μL of the protein solution was mixed with 1 μL of the inhibitor diluted in DMSO (final DMSO concentration 1% at final assay volume of 100 μL) and incubated for 30 min. […] Negative controls were measured in the absence of enzyme (89 μL of assay buffer), whereas the positive controls were measured in the presence of enzyme and in the absence of inhibitors (1 μL of DMSO). Each measurement was performed in triplicate in three independent experiments. IC50 values were calculated using data obtained from measurements with at least eight different inhibitor concentrations, applying a sigmoidal dose–response (variable slope with four parameters) equation using GraphPad Prism 5 (GraphPad Software, La Jolla, CA) software. […] All assays were performed in at least in triplicate.

[8] = system: E. coli SI–N003 (bla NDM‑7 +); type: cell-based; conditions: compound at 32 μg/mL; median of three experiments
Procedure: as §1

[9] = system: E. coli SI-G001 (bla NDM‑4 +); type: cell-based; conditions: compound at 32 μg/mL; median of three experiments
Procedure: as §1

[10] = system: K. pneumoniae VA-416/02 (bla VIM‑4 +); test: Imipenem MIC, broth microdilution, with fixed concentration of compound; type: cell-based; conditions: compound at 32 μg/mL; median of three experiments
Procedure: as §1

[11] = system: A. baumannii AC-54/97 (bla IMP‑2 +); test: as above; type: cell-based; conditions: compound at 32 μg/mL; median of three experiments
Procedure: as §1

[12] = system: P. aeruginosa T2325 (bla IMP‑1 +); test: as above; type: cell-based
Procedure: as §1

[13] = system: K. pneumoniae T2216 (bla VIM‑1 +); test: as above; type: cell-based; conditions: compound at 128 μg/mL; median of three experiments
Procedure: as §1

[14] = system: K. pneumoniae 7023 (bla VIM‑1 +); test: as above; type: cell-based; conditions: for imipenem MIC, K. pneumoniae 7023 (bla VIM‑1 +): compound at 32 μg/mL, median of three experiments
Procedure: as §1

[15] = system: K. pneumoniae T2301 (bla NDM‑1 +); test: as above; type: cell-based; conditions: compound at 128 μg/mL; median of three experiments
Procedure: (§6) In vitro antimicrobial susceptibility testing was performed according to established standards. […]. The strains used in the study were described elsewhere.

[16] = system: E. coli SI-M001 (bla NDM‑1 +); test: as above; type: cell-based; conditions: compound at 32 μg/mL; median of three experiments
Procedure: as §6

[17] = biological target: T4, VIM-1 (Pseudomonas aeruginosa, UniProt A0A0F7KYQ8); test: Kinetic fluorescence-based in vitro assay with fluorocillin substrate (IC50); type: biochemical
T4 construct: made in house; host or cells: E. coli
Procedure: as §4, §5

[18] = biological target: IMP-7 (Pseudomonas aeruginosa, UniProt Q93AU3); test: as above; type: biochemical; conditions: 30 min preincubation
Procedure: as §4, §5

[19] = biological target: T3, NDM-1; test: as above; type: biochemical; conditions: 30 min preincubation
Procedure: as §4, §5

[20] = biological target: T5, IMP-1 (Serratia marcescens, UniProt P52699); test: biochemical; conditions: for inhibition at 50 µM: read-out: percentage of inhibition IMP-1
T5 construct: made in house; host or cells: E. coli
Procedure: as §4, §5

[21] = biological target: T1, VIM-2; test: biochemical; conditions: read-out: percentage of inhibition VIM-2
Procedure: as §4, §5

[22] = system: MBL-producing clinical isolates; test: Synergistic activity with imipenem on the whole panel of clinical isolates; type: cell-based
Procedure: as §6

[23] = 6d at 128 μg/mL plus imipenem at 0.5 × MIC, 24 h

T3 sequence (C7C422 29-270 limits assumed): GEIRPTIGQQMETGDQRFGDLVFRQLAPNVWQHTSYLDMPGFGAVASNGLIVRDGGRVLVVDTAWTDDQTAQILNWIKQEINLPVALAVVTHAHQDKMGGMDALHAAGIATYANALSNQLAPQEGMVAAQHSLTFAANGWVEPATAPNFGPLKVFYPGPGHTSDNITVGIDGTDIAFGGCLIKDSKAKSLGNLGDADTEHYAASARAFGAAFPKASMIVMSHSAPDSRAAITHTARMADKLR
T5 sequence (P52699 19-246, looked up, species assumed): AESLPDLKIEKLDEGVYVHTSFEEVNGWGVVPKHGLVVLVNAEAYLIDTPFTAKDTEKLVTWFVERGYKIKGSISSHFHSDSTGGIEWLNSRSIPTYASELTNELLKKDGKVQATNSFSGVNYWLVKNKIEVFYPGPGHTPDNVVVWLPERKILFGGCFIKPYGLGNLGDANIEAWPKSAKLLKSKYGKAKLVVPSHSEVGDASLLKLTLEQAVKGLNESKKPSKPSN
T2 sequence (P12821 30-1306): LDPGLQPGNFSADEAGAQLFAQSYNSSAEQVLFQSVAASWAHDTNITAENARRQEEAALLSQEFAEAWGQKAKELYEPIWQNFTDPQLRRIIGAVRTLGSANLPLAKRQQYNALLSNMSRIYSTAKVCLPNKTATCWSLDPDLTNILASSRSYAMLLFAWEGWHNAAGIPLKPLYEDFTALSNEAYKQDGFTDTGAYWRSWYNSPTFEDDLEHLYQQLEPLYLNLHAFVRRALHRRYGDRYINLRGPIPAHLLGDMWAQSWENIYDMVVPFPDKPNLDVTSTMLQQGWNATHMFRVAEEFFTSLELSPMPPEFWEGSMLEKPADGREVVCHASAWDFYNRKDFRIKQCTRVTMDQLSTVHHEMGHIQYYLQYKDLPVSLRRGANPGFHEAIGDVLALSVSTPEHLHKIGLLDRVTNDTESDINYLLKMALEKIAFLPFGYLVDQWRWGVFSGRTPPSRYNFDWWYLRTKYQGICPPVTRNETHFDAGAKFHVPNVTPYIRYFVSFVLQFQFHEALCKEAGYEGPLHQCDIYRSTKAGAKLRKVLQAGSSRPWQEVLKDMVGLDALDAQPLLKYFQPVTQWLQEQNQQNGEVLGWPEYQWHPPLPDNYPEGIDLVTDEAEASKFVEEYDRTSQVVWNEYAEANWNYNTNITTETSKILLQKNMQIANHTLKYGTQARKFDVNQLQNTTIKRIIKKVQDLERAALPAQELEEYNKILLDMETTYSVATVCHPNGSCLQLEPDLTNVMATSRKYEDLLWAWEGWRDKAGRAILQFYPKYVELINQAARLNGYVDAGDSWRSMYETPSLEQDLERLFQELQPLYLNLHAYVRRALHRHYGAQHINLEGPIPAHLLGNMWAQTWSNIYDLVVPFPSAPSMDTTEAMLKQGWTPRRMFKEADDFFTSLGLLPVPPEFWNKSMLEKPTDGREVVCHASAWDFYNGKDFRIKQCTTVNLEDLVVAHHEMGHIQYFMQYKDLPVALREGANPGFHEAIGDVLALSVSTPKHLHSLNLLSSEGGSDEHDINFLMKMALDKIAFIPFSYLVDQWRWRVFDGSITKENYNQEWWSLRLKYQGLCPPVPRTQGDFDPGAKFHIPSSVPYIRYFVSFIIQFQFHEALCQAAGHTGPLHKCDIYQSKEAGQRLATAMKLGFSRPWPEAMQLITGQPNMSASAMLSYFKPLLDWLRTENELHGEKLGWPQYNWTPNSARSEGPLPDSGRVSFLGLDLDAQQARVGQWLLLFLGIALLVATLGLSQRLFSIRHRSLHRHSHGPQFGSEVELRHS
Sequence of IMP-7 (Q93AU3 entry or part of it): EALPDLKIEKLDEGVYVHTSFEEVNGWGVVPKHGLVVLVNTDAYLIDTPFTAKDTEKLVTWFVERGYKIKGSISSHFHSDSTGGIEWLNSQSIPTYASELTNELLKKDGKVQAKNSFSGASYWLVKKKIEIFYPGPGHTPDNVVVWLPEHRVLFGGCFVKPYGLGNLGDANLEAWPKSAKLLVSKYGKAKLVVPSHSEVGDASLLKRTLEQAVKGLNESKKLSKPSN

CCC1(CC)c2ccccc2N(C(=O)[C@H](C)CS)[C@H]1C(N)=O [6d, (R)-3,3-Diethyl-1-((S)-3-mercapto-2-methylpropanoyl)indoline-2-carboxamide]
K, VIM-2 [1]: >30 µM | k –2, VIM-2 [1]: 5.0 × 10^–3 s^–1 | Kd [1]: 80 ± 10 nM | imipenem MIC, S. marcescens SI-1591 (bla VIM‑2 +) [2]: 8 µg/mL | effect on the inhibitory potential of imipenem (growth curves) [3, 23]: further prolonged for several hours | intrinsic antibacterial activity (no activity up to) ([3]; inhibitor alone): > 128 µg/mL | effect on the inhibitory potential of imipenem (growth curves) [4, 23]: further prolonged for several hours | intrinsic antibacterial activity (no activity up to) ([4]; inhibitor alone): > 128 µg/mL | effect on the inhibitory potential of imipenem (growth curves) [5, 23]: further prolonged for several hours | intrinsic antibacterial activity (no activity up to) ([5]; inhibitor alone): > 128 µg/mL | inhibition at 50 µM [6]: < 5% | inhibitory activity on ACE-1 (in words) ([6]; tested at 50 μM): negligible activity; also recorded: completely inactive | Ki [7]: 2600 ± 100 nM | inhibition at 50 µM [7]: 90% | imipenem MIC, E. coli SI–N003 (bla NDM‑7 +) [8]: 64 µg/mL | imipenem MIC, E. coli SI-G001 (bla NDM‑4 +) [9]: 32 µg/mL | imipenem MIC, K. pneumoniae VA-416/02 (bla VIM‑4 +) [10]: 64 µg/mL | imipenem MIC, A. baumannii AC-54/97 (bla IMP‑2 +) [11]: 128 µg/mL | imipenem MIC, P. aeruginosa T2325 (bla IMP‑1 +) ([12]; compound at 128 μg/mL, median of three experiments): 16 ^c μg/mL | fold reduction of the imipenem MIC, IMP-1-producing P. aeruginosa isolate ([12]; in combination with imipenem): 8 fold and 4 fold | imipenem MIC, K. pneumoniae T2216 (bla VIM‑1 +) [13]: 2 ^c μg/mL | imipenem MIC, K. pneumoniae 7023 (bla VIM‑1 +) [14]: 16 µg/mL | fold reduction of the imipenem MIC, VIM-1-producing K. pneumoniae isolate ([14]; in combination with imipenem): 8 fold and 4 fold | imipenem MIC, K. pneumoniae T2301 (bla NDM‑1 +) [15]: 16 ^c μg/mL | imipenem MIC, E. coli SI-M001 (bla NDM‑1 +) [16]: 32 µg/mL | IC50 [17]: 400 nM | IC50 [18]: 3300 nM | IC50 [19]: 3500 nM | inhibition at 50 µM [20]: 51% | inhibition at 50 µM [21]: 98%

C[C@H](CS)C(=O)N1c2ccccc2C2(CCCCC2)[C@H]1C(N)=O [6e, (S)-1′-((S)-3-Mercapto-2-methylpropanoyl)spiro[cyclohexane-1,3′-indoline]-2′-carboxamide]
Ki ([1]; competitive model, imipenem reporter substrate, read-out: K i VIM-2): 100 ± 10 nM | imipenem MIC, S. marcescens SI-1591 (bla VIM‑2 +) [2]: 16 µg/mL | inhibition at 50 µM [6]: < 5% | potentiation of imipenem (change of imipenem MIC) on the panel, in words [22]: unable to reduce the imipenem MIC | Ki [7]: 2000 ± 100 nM | inhibition at 50 µM [7]: 86% | imipenem MIC, E. coli SI–N003 (bla NDM‑7 +) [8]: 64 µg/mL | imipenem MIC, E. coli SI-G001 (bla NDM‑4 +) [9]: 64 µg/mL | imipenem MIC, K. pneumoniae VA-416/02 (bla VIM‑4 +) [10]: 64 µg/mL | imipenem MIC, A. baumannii AC-54/97 (bla IMP‑2 +) [11]: 128 µg/mL | imipenem MIC, K. pneumoniae 7023 (bla VIM‑1 +) [14]: 64 µg/mL | imipenem MIC, E. coli SI-M001 (bla NDM‑1 +) [16]: 32 µg/mL | IC50 [19]: 7400 nM | Ki ([20]; competitive model, imipenem reporter substrate, read-out: K i IMP-1): 3800 ± 300 nM | inhibition at 50 µM [20]: 68% | inhibition at 50 µM [21]: 97%

C[C@H](CS)C(=O)N1c2ccccc2C2(CCCCC2)[C@@H]1C(N)=O [6f, (R)-1′-((S)-3-Mercapto-2-methylpropanoyl)spiro[cyclohexane-1,3′-indoline]-2′-carboxamide]
K, VIM-2 [1]: >20 µM | k –2, VIM-2 [1]: 2.6 × 10^–3 s^–1 | Kd [1]: 160 ± 10 nM | imipenem MIC, S. marcescens SI-1591 (bla VIM‑2 +) [2]: 16 µg/mL | potentiation of imipenem (change of imipenem MIC) on the panel, in words [22]: unable to reduce the imipenem MIC | Ki [7]: 2100 ± 200 nM | inhibition at 50 µM [7]: 83% | imipenem MIC, E. coli SI–N003 (bla NDM‑7 +) [8]: 64 µg/mL | imipenem MIC, E. coli SI-G001 (bla NDM‑4 +) [9]: 64 µg/mL | imipenem MIC, K. pneumoniae VA-416/02 (bla VIM‑4 +) [10]: 128 µg/mL | imipenem MIC, A. baumannii AC-54/97 (bla IMP‑2 +) [11]: 128 µg/mL | imipenem MIC, K. pneumoniae 7023 (bla VIM‑1 +) [14]: 64 µg/mL | imipenem MIC, E. coli SI-M001 (bla NDM‑1 +) [16]: 32 µg/mL | IC50 [19]: 4800 nM | inhibition at 50 µM [20]: 38% | inhibition at 50 µM [21]: 92%

Source: paper PMC12406192, “Sustainable Joullié–Ugi and Continuous Flow Implementation Led to Novel Captopril-Inspired Broad-Spectrum Metallo-β-Lactamase Inhibitors” (Journal of Medicinal Chemistry, 2025)
